Laboratory results: patent US9995734B2, “Human T cell line assay for evaluating the immunologic identity of glatiramer acetate preparations” (Mylan Inc., priority 2013, dated 2018)

Test system: Donor 1 COP T-Cell Lines
Test: Multiplex bead cytokine assay (FlowCytoMix), Donor 1 COP T-cell lines
Assay type: cell-based, human
Protocol: Culture medium was removed from cultures prepared as for proliferation assay and utilized to measure cytokine production. In most cases culture medium was collected 18-24 hours after mixing T-cells, APC, and stimulating antigen. Cytokine production was measured by ELISA or bead assay. For measuring cytokine production, 100-150 μL culture medium (100 μL if culture was to be continued, otherwise 150 μL) was removed from each well. In some cases, the culture was continued 48 hours, for a total of 72 hours of culture, and the proliferative response measured.
The concentration of multiple cytokines was measured simultaneously using FlowCytoMix™ kits (eBioscience, San Diego Calif.). These are fluorescent bead based assays consisting of beads conjugated to anti cytokine antibodies. Beads specific for each cytokine are distinguished by size and fluorescence at 670 run. Cytokine bound to each bead is detected using a phycoerythrin conjugated antibody so that the fluorescence at 585 nm reflects the concentration of cytokine in the sample. Two kits were utilized which measured different cytokine panels. The TH1/TH2 kit measures IFN-γ, IL-1β, IL-2, IL-4, IL-5, IL-6, IL-8, IL-10, IL-12p70, TNF-α (TNF) and TNF-β (LT). The TH1/TH2/TH9/TH17/TH22 kit measures […], IL-1β, IL-2, IL-4, IL-5, IL-6, IL-9, IL-10, IL-12p70, IL-13, IL-17, IL-22, and TNF-α (TNF). Both kits were used following the manufacturer's instructions.
IL-12p70, IFN-γ, IL-2, IL-10, IL-8, IL-6, IL-5, IL-4, IL-1β, TNF-α (TNF), and TNF-β (LT) secretion were measured in response to stimulation with 1, 3, or 10 μg/mL GMA, or 1, 3, or 10 μg/mL COP, as well as a no-antigen control and an MBP control, in the presence of autologous EBV-transformed B-LCL.

[1] = 222-1C5, 1 μg/mL, 24 hours after Day 56 restimulation
[2] = 222-1C5, 3 μg/mL, 24 hours after Day 56 restimulation
[3] = 222-1C5, 10 μg/mL, 24 hours after Day 56 restimulation
[4] = 222-1C5, 10 μg/mL, Day 34 supernatants
[5] = 222-1H12, 10 μg/mL, Day 34 supernatants
[6] = 222-2B8, 1 μg/mL, 24 hours after Day 56 restimulation
[7] = 222-2B8, 3 μg/mL, 24 hours after Day 56 restimulation
[8] = 222-2B8, 10 μg/mL, 24 hours after Day 56 restimulation
[9] = 222-2D2, 10 μg/mL, Day 34 supernatants
[10] = 222-2D8, 10 μg/mL, Day 34 supernatants
[11] = 222-2E1, 1 μg/mL, 24 hours after Day 56 restimulation
[12] = 222-2E1, 3 μg/mL, 24 hours after Day 56 restimulation
[13] = 222-2E1, 10 μg/mL, 24 hours after Day 56 restimulation
[14] = 222-B11 (so in the source), 1 μg/mL, 24 hours after Day 56 restimulation
[15] = 222-B11 (so in the source), 3 μg/mL, 24 hours after Day 56 restimulation
[16] = 222-B11 (so in the source), 10 μg/mL, 24 hours after Day 56 restimulation

Substance: glatiramer acetate [COP]
- IFN-γ [1]: 158 pg/mL
- IL-2 [1]: 0 pg/mL
- IL-5 [1]: 0 pg/mL
- IL-10 [1]: 11 pg/mL
- IL-13 [1]: 129 pg/mL
- IL-22 [1]: 0 pg/mL
- TNF-α [1]: 11 pg/mL
- IFN-γ [2]: 256 pg/mL
- IL-2 [2]: 0 pg/mL
- IL-5 [2]: 0 pg/mL
- IL-10 [2]: 16 pg/mL
- IL-13 [2]: 254 pg/mL
- IL-22 [2]: 32 pg/mL
- TNF-α [2]: 42 pg/mL
- IFN-γ [3]: 585 pg/mL
- IL-2 [3]: 40 pg/mL
- IL-5 [3]: 0 pg/mL
- IL-10 [3]: 49 pg/mL
- IL-13 [3]: 837 pg/mL
- IL-22 [3]: 42 pg/mL
- TNF-α [3]: 42 pg/mL
- IFN-γ [4]: 416.83 pg/mL
- IL-1β [4]: <= 0 pg/mL
- IL-2 [4]: <= 0 pg/mL
- IL-5 [4]: 56.39 pg/mL
- IL-8 [4]: <= 0 pg/mL
- IL-10 [4]: 50.58 pg/mL
- TNF-α [4]: <= 0 pg/mL
- TNF-β [4]: 15.34 pg/mL
- IFN-γ [5]: 3626 pg/mL
- IL-1β [5]: 59 pg/mL
- IL-2 [5]: 0 pg/mL
- IL-4 [5]: 0 pg/mL
- IL-5 [5]: 398 pg/mL
- IL-10 [5]: 240 pg/mL
- TNF-α [5]: 22 pg/mL
- TNF-β [5]: 98 pg/mL
- IFN-γ [6]: 8.46 pg/mL
- IL-2 [6]: 0 pg/mL
- IL-5 [6]: 0 pg/mL
- IL-10 [6]: 2.99 pg/mL
- IL-13 [6]: 204.31 pg/mL
- IL-22 [6]: 83.01 pg/mL
- TNF-α [6]: 0 pg/mL
- IFN-γ [7]: 39.91 pg/mL
- IL-2 [7]: 19.65 pg/mL
- IL-5 [7]: 30.3 pg/mL
- IL-10 [7]: 2.83 pg/mL
- IL-13 [7]: 1028.23 pg/mL
- IL-22 [7]: 77.82 pg/mL
- TNF-α [7]: 0 pg/mL
- IFN-γ [8]: 119.12 pg/mL
- IL-2 [8]: 0 pg/mL
- IL-5 [8]: 314.77 pg/mL
- IL-10 [8]: 36.16 pg/mL
- IL-13 [8]: 2825.8 pg/mL
- IL-22 [8]: 143.57 pg/mL
- TNF-α [8]: 91.29 pg/mL
- IFN-γ [9]: 120 pg/mL
- IL-1β [9]: 130.9 pg/mL
- IL-2 [9]: 210.47 pg/mL
- IL-5 [9]: 38.13 pg/mL
- IL-8 [9]: 0.85 pg/mL
- IL-10 [9]: 45.09 pg/mL
- TNF-α [9]: 30.87 pg/mL
- TNF-β [9]: 23.15 pg/mL
- IL-4, IL-6, or IL-12 detected (222-2D8, 222-1H12, 222-1C5, 222-2D2, Day 34 supernatants): Little or no
- IFN-γ [10]: 3296 pg/mL
- IL-1β [10]: 2535 pg/mL
- IL-2 [10]: 0 pg/mL
- IL-4 [10]: 0 pg/mL
- IL-5 [10]: 1587 pg/mL
- IL-10 [10]: 100 pg/mL
- TNF-α [10]: 493 pg/mL
- TNF-β [10]: 267 pg/mL
- IFN-γ [11]: 53.73 pg/mL
- IL-2 [11]: 26.46 pg/mL
- IL-5 [11]: 0 pg/mL
- IL-10 [11]: 5.3 pg/mL
- IL-13 [11]: 165.79 pg/mL
- IL-22 [11]: 72.54 pg/mL
- TNF-α [11]: 25.28 pg/mL
- IFN-γ [12]: 163.61 pg/mL
- IL-2 [12]: 40.39 pg/mL
- IL-5 [12]: 0 pg/mL
- IL-10 [12]: 12.19 pg/mL
- IL-13 [12]: 1037.93 pg/mL
- IL-22 [12]: 40.37 pg/mL
- TNF-α [12]: 0 pg/mL
- IFN-γ [13]: 405.26 pg/mL
- IL-2 [13]: 0 pg/mL
- IL-5 [13]: 106.24 pg/mL
- IL-10 [13]: 22 pg/mL
- IL-13 [13]: 2046.94 pg/mL
- IL-22 [13]: 60.95 pg/mL
- TNF-α [13]: 333.22 pg/mL
- IFN-γ [14]: 0.65 pg/mL
- IL-2 [14]: 63.02 pg/mL
- IL-5 [14]: 0 pg/mL
- IL-10 [14]: 0 pg/mL
- IL-13 [14]: 47.69 pg/mL
- IL-22 [14]: 69.37 pg/mL
- TNF-α [14]: 0 pg/mL
- IFN-γ [15]: 0 pg/mL
- IL-2 [15]: 0 pg/mL
- IL-5 [15]: 0 pg/mL
- IL-10 [15]: 0 pg/mL
- IL-13 [15]: 105.51 pg/mL
- IL-22 [15]: 45.67 pg/mL
- TNF-α [15]: 0 pg/mL
- IFN-γ [16]: 47.35 pg/mL
- IL-2 [16]: 0 pg/mL
- IL-5 [16]: 119 pg/mL
- IL-10 [16]: 11.27 pg/mL
- IL-13 [16]: 1839.63 pg/mL
- IL-22 [16]: 19.45 pg/mL
- TNF-α [16]: 13.51 pg/mL
- IFN-γ production (Line 105 (so in the source), Table 14 = 222-1C5, after appropriate dilution of supernatants): comparable amounts
